Key:
Assay type in all cases: biochemical
SIK3 = SIK3 (Homo sapiens, UniProt Q9Y2K2); assay: Enzymatic activity assay SIK3, RapidFire mass spectrometry (phosphorylation of CHK-peptide); conditions: RapidFire MS, inhibition of SIK3; read-out: SIK3 RF IC50
How it was run: (§1)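 Compounds (12-point, 3-fold, generally 30 μM to 170 pM) were pre-incubated 30 min at ambient temperature with SIK1 (5 nM), SIK2 (0.5 nM) or SIK3 (1.5 nM) in HEPES pH 7.0/magnesium acetate buffer. CHK-peptide (10 μM solution) and ATP (100 μM solution) were then added for 45 min before formic acid quench.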

SIK1 = SIK1 (Homo sapiens, UniProt P57059); assay: Enzymatic activity assay SIK1, RapidFire mass spectrometry (phosphorylation of CHK-peptide); conditions: RapidFire MS, inhibition of SIK1; read-out: SIK1 RF IC50
Chain of SIK1 (P57059 whole entry): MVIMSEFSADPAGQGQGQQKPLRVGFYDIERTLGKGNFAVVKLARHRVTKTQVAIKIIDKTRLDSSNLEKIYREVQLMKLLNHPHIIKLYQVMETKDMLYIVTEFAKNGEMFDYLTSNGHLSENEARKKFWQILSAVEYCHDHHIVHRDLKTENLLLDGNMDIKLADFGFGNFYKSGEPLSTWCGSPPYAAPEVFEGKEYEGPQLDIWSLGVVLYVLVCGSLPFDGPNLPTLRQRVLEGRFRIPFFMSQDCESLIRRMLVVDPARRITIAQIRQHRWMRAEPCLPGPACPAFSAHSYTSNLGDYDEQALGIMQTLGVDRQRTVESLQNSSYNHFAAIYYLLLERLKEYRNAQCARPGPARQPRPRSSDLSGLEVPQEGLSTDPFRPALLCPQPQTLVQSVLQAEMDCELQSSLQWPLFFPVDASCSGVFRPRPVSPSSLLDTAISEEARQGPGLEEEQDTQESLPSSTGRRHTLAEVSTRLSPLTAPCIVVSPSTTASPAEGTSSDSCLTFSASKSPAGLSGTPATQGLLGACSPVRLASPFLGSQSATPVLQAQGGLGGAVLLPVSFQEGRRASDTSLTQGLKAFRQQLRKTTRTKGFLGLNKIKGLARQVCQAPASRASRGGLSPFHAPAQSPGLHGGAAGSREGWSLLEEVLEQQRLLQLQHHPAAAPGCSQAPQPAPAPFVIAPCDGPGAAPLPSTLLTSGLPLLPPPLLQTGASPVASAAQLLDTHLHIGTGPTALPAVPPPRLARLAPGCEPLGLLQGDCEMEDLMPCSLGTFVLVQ
How it was run: as §1

SIK2 = SIK2 (Homo sapiens, UniProt Q9H0K1); assay: Enzymatic activity assay SIK2, RapidFire mass spectrometry (phosphorylation of CHK-peptide); conditions: RapidFire MS, inhibition of SIK2; read-out: SIK2 RF IC50
Chain of SIK2 (Q9H0K1 whole entry): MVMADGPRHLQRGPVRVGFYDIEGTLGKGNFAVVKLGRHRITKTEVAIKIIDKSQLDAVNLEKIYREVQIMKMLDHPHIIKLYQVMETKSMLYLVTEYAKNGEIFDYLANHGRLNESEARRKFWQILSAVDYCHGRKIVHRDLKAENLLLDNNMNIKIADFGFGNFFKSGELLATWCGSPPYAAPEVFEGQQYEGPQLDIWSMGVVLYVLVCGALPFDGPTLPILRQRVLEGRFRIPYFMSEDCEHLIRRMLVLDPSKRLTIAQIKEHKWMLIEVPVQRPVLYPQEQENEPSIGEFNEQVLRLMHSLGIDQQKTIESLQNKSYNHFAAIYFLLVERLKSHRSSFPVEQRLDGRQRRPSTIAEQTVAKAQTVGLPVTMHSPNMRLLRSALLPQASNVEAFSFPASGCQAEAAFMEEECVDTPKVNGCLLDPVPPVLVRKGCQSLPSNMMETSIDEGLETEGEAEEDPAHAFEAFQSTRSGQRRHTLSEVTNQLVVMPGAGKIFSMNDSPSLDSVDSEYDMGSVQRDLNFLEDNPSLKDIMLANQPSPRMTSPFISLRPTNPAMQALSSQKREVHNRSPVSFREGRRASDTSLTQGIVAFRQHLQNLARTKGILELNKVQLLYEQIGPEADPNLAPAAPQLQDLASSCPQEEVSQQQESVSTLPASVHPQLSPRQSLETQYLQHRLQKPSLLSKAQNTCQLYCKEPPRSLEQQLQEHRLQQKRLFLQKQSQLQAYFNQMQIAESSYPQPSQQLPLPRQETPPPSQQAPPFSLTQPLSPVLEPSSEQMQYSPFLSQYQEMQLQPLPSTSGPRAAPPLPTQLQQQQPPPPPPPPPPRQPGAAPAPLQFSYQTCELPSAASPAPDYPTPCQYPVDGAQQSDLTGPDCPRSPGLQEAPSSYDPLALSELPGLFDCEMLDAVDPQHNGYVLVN
How it was run: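 SIK2 (0.5 nM) in pH 7.0 HEPES buffer with 10 mM Mg acetate phosphorylates CHK-peptide (10 μM solution) with 100 μM ATP solution, 45 min ambient, then formic acid quench.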

Chain of SIK3 (Q9Y2K2 whole entry): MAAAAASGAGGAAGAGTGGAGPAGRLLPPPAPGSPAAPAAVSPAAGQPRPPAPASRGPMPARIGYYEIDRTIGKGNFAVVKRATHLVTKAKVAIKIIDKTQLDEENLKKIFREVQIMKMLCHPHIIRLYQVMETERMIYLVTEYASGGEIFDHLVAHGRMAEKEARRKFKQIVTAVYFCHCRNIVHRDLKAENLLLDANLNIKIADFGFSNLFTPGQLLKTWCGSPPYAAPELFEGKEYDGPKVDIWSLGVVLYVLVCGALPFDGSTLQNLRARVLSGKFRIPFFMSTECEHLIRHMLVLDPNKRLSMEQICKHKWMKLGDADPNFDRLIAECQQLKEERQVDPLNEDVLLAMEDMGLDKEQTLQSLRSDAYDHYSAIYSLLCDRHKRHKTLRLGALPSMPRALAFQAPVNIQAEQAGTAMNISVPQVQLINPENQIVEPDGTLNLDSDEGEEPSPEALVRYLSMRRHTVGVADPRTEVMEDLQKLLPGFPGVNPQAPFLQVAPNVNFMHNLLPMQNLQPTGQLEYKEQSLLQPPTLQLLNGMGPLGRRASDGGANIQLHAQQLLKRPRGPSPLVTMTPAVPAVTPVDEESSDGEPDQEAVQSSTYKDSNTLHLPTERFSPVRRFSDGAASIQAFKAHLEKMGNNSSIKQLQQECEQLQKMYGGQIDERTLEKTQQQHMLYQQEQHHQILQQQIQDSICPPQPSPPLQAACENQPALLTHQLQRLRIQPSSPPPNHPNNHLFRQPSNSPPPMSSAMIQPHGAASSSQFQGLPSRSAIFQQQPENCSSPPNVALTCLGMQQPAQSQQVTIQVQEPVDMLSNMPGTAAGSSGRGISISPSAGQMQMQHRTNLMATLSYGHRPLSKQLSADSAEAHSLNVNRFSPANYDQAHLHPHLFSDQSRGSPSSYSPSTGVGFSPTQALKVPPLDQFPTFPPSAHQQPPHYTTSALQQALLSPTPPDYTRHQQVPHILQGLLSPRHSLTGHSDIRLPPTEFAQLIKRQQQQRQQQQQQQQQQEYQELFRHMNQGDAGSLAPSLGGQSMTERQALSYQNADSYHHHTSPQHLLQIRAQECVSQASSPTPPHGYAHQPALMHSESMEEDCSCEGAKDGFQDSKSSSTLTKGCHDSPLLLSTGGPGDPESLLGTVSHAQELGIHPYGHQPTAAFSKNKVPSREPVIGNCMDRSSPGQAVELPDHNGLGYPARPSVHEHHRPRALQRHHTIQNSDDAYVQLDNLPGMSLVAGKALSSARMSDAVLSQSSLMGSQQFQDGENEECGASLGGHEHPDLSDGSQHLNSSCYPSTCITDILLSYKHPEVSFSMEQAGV

SMILES | IC50 (SIK3) [µM] | IC50 (SIK1) [µM] | IC50 (SIK2) [µM]
Cc1cc(C#N)nn1-c1nc(-n2cnc3ccc(CN4CCCC4=O)cc32)ccc1C(C)O (stereo not drawn) [Example 212, 1-[3-(1-Hydroxyethyl)-6-[6-[(2-oxopyrrolidin-1-yl)methyl]benzimidazol-1-yl]-2-pyridyl]-5-methyl-pyrazole-3-carbonitrile] | 1.58 | 0.453 | 0.292
COc1cc2ncn(-c3ccc([C@@H](C)O)c(-c4ccc(F)cc4OC)n3)c2cc1OC [Example 22, (R)-1-(6-(5,6-Dimethoxy-1H-benzo[d]imidazol-1-yl)-2-(4-fluoro-2-methoxyphenyl)pyridin-3-yl)ethan-1-ol] | 4.48 | 0.97 | 0.849
Cc1ccc(Nc2ccc3c(c2)ncn3-c2ccc(C(C)O)c(-n3nc(C)cc3C(F)F)n2)nn1 (stereo not drawn) [Example 231, 1-[2-[5-(difluoromethyl)-3-methyl-pyrazol-1-yl]-6-[5-[(6-methylpyridazin-3-yl)amino]benzimidazol-1-yl]-3-pyridyl]ethanol] | 0.002 | 1.05 | 0.0129
Cc1ccc(Nc2ccc3c(c2)ncn3-c2ccc(C(C)O)c(-c3cc(C#N)n(C)n3)n2)nn1 (stereo not drawn) [Example 246, 5-[3-(1-Hydroxyethyl)-6-[5-[(6-methylpyridazin-3-yl)amino]benzimidazol-1-yl]-2-pyridyl]-2-methyl-pyrazole-3-carbonitrile; formic acid] | 0.0054 | 7.78 | 0.0295
COc1cc2ncn(-c3ccc(CO)c(N4CCCC4)n3)c2cc1OC [Example 27, (6-(5,6-Dimethoxy-1H-benzo[d]imidazol-1-yl)-2-(pyrrolidin-1-yl)pyridin-3-yl)methanol] | 0.761 | 0.535 | 0.473
Cc1ccc(Nc2ccc3c(c2)ncn3-c2ccc(C(C)O)c(-c3cc(C#N)nn3C)n2)nn1 (stereo not drawn) [Example 255, 5-[3-(1-hydroxyethyl)-6-[5-[(6-methylpyridazin-3-yl)amino]benzimidazol-1-yl]-2-pyridyl]-1-methyl-pyrazole-3-carbonitrile] | 0.0304 | 12.8 | 0.194
Cc1ccc(Nc2ccc3c(c2)ncn3-c2ccc(C(C)O)c(-n3nc(OC(F)F)cc3C)n2)nn1 (stereo not drawn) [Example 290, 1-[2-[3-(difluoromethoxy)-5-methyl-pyrazol-1-yl]-6-[5-[(6-methylpyridazin-3-yl)amino]benzimidazol-1-yl]-3-pyridyl]ethanol] | 0.0005 | 0.054 | 0.0006
Cc1cc(C#N)nn1-c1nc(-n2cnc3cc(Nc4cnn(C5CNC5)c4)ccc32)ccc1C(C)O (stereo not drawn) [Example 72, 1-[6-[5-[[1-(Azetidin-3-yl)pyrazol-4-yl]amino]benzimidazol-1-yl]-3-(1-hydroxyethyl)-2-pyridyl]-5-methyl-pyrazole-3-carbonitrile] | 0.0021 | 0.005 | 0.001
Cc1ccc(Nc2ccc3c(c2)ncn3-c2ccc(C(C)O)c(-c3c(C)noc3C)n2)nn1 (stereo not drawn) [Example 159, 1-[2-(3,5-Dimethylisoxazol-4-yl)-6-[5-[(6-methylpyridazin-3-yl)amino]benzimidazol-1-yl]-3-pyridyl]ethanol] | 0.0702 | 23.8 | 0.306
Cc1cc(C#N)nn1-c1nc(-n2cnc3cc(Nc4ccon4)ccc32)ccc1C(C)O (stereo not drawn) [Example 123, 1-[3-(1-Hydroxyethyl)-6-[5-(isoxazol-3-ylamino)benzimidazol-1-yl]-2-pyridyl]-5-methyl-pyrazole-3-carbonitrile] | 0.0059 | 0.013 | 0.0099
COc1c(O)cccc1-c1nc(-n2cnc3cc(Nc4ccc(C)nn4)ccc32)ccc1C(C)O (stereo not drawn) [Example 203, 3-[3-(1-Hydroxyethyl)-6-[5-[(6-methylpyridazin-3-yl)amino]benzimidazol-1-yl]-2-pyridyl]-2-methoxy-phenol; formic acid] | 0.0554 | 14.4 | 0.52
Cc1ccc(Nc2cc3ncn(-c4ccc([C@H](C)O)c(-n5nc(C#N)cc5C)n4)c3cc2F)nn1 [Example 236, 1-[6-[6-Fluoro-5-[(6-methylpyridazin-3-yl)amino]benzimidazol-1-yl]-3-[(1S)-1-hydroxyethyl]-2-pyridyl]-5-methyl-pyrazole-3-carbonitrile] | 0.0003 | 0.084 | 0.0003
Cc1ccc(Nc2ccc3c(c2)ncn3-c2ccc(C(C)O)c(-c3cnc(O)cc3C(F)(F)F)n2)nn1 (stereo not drawn) [Example 164, 5-[3-(1-Hydroxyethyl)-6-[5-[(6-methylpyridazin-3-yl)amino]benzimidazol-1-yl]-2-pyridyl]-4-(trifluoromethyl)pyridin-2-ol] | 0.963 | > 30 | 3.3
COc1cc2ncn(-c3ccc([C@H](C)O)c(-c4ccc(C#N)cc4)n3)c2cc1OC [Example 39, (S)-4-(6-(5,6-Dimethoxy-1H-benzo[d]imidazol-1-yl)-3-(l-hydroxyethyl)pyridin-2-yl)benzonitrile] | 0.178 | 0.152 | 0.0249
Cc1cc(C#N)nn1-c1nc(-n2cnc3cc(Nc4ccc(OC(F)F)nn4)ccc32)ccc1C(C)O (stereo not drawn) [Example 197, 1-[6-[5-[[6-(Difluoromethoxy)pyridazin-3-yl]amino]benzimidazol-1-yl]-3-(1-hydroxyethyl)-2-pyridyl]-5-methyl-pyrazole-3-carbonitrile] | 0.0009 | 0.015 | 0.0023
COCCOCCOCCOCCOCCOCCOCCOc1ccc(Nc2ccc3c(c2)ncn3-c2ccc(C(C)O)c(-n3nc(C#N)cc3C)n2)nn1 (stereo not drawn) [Example 293, 1-[3-(1-hydroxyethyl)-6-[5-[[6-[2-[2-[2-[2-[2-[2-(2-methoxyethoxy)ethoxy]ethoxy]ethoxy]ethoxy]ethoxy]ethoxy]pyridazin-3-yl]amino]benzimidazol-1-yl]-2-pyridyl]-5-methyl-pyrazole-3-carbonitrile] | 0.0028 | 0.132 | 0.006
Cc1ccc(Nc2ccc3c(c2)ncn3-c2ccc(C(C)O)c(O[C@H]3CCNC3)n2)nn1 (stereo partly drawn) [Example 208, 1-[6-[5-[(6-Methylpyridazin-3-yl)amino]benzimidazol-1-yl]-2-[(3S)-pyrrolidin-3-yl]oxy-3-pyridyl]ethanol] | 0.0048 | 0.462 | 0.0297

The remaining lines, values ahead:

IC50 (SIK3) [µM] | IC50 (SIK1) [µM] | IC50 (SIK2) [µM] | SMILES
0.0021 | 0.155 | 0.0017 | Cc1ccc(Nc2ccc3c(c2)ncn3-c2ccc(C(C)O)c(-n3nc(C#N)c4c3C(F)(F)CNC4)n2)nn1 (stereo not drawn) [Example 305, 7,7-difluoro-1-[3-(1-hydroxyethyl)-6-[5-[(6-methylpyridazin-3-yl)amino]benzimidazol-1-yl]-2-pyridyl]-5,6-dihydro-4~{H}-pyrazolo[4,3-c]pyridine-3-carbonitrile]
0.0276 | 0.087 | 0.0272 | Cc1cc(C#N)nn1-c1nc(-n2cnc3cc(-c4ccn(C)c(=O)n4)ccc32)ccc1C(C)O (stereo not drawn) [Example 338, 1-[3-(1-hydroxyethyl)-6-[5-(1-methyl-2-oxo-pyrimidin-4-yl)benzimidazol-1-yl]-2-pyridyl]-5-methyl-pyrazole-3-carbonitrile]
0.301 | 0.032 | 0.0297 | Cc1ccc(-c2ccc3ncn(-c4ccc(C(C)O)c(-n5nc(C#N)cc5C)n4)c3c2)nn1 (stereo not drawn) [Example 339, 1-[3-(1-hydroxyethyl)-6-[6-(6-methylpyridazin-3-yl)benzimidazol-1-yl]-2-pyridyl]-5-methyl-pyrazole-3-carbonitrile]
0.0046 | 0.975 | 0.0151 | Cc1ccc(Nc2ccc3c(c2)ncn3-c2ccc(CO)c(-c3cnn(CC(F)(F)F)c3C)n2)nn1 [Example 316, [6-[5-[(6-methylpyridazin-3-yl)amino]benzimidazol-1-yl]-2-[5-methyl-1-(2,2,2-trifluoroethyl)pyrazol-4-yl]-3-pyridyl]methanol]
0.0003 | 0.01 | 0.001 | Cc1ccc(Nc2ccc3c(c2)ncn3-c2ccc(C(C)O)c(-c3cc(C(F)F)ncc3C)n2)nn1 (stereo not drawn) [Example 335, 1-[2-[2-(difluoromethyl)-5-methyl-4-pyridyl]-6-[5-[(6-methlpyridazin-3-yl)amino]benzimidazol-1-yl]-3-pyridyl]ethanol]
0.0035 | 1.1 | 0.0192 | Cc1ccc(Nc2ccc3c(c2)ncn3-c2ccc(C(C)O)c(N3CC4CC4(C#N)C3)n2)nn1 (stereo not drawn) [Example 321, 3-[3-(1-hydroxyethyl)-6-[5-[(6-methylpyridazin-3-yl)amino]benzimidazol-1-yl]-2-pyridyl]-3-azabicyclo[3.1.0]hexane-1-carbonitrile]
0.0006 | 0.207 | 0.0005 | Cc1cc(C#N)nn1-c1nc(-n2cnc3cc(Nc4cc5c(nn4)CCC5)c(F)cc32)ccc1C(C)O (stereo not drawn) [Example 382, 1-[6-[5-(6,7-dihydro-5~{H}-cyclopenta[c]pyridazin-3-ylamino)-6-fluoro-benzimidazol-1-yl]-3-(1-hydroxyethyl)-2-pyridyl]-5-methyl-pyrazole-3-carbonitrile]
0.0087 | 0.998 | 0.006 | Cc1ccc(Nc2cc3ncn(-c4ccc([C@@H](C)O)c(-n5nc(OC(F)F)cc5C)n4)c3cc2F)nn1 [Example 375, (1R)-1-[2-[3-(difluoromethoxy)-5-methyl-pyrazol-1-yl]-6-[6-fluoro-5-[(6-methylpyridazin-3-yl)amino]benzimidazol-1-yl]-3-pyridyl]ethanol]
